This experiment has as its target T1, fatty acyl CoA: cholesterol acyl transferase (ACAT) (Rattus norvegicus, UniProt O70536).
T1 construct: The supernatant, containing the microsomal fraction, served as the source of the cholesterol-esterifying enzyme; from tissue; host or cells: rat adrenals (1,000 x g supernatant containing the microsomal fraction)
T1 sequence (O70536 1-545): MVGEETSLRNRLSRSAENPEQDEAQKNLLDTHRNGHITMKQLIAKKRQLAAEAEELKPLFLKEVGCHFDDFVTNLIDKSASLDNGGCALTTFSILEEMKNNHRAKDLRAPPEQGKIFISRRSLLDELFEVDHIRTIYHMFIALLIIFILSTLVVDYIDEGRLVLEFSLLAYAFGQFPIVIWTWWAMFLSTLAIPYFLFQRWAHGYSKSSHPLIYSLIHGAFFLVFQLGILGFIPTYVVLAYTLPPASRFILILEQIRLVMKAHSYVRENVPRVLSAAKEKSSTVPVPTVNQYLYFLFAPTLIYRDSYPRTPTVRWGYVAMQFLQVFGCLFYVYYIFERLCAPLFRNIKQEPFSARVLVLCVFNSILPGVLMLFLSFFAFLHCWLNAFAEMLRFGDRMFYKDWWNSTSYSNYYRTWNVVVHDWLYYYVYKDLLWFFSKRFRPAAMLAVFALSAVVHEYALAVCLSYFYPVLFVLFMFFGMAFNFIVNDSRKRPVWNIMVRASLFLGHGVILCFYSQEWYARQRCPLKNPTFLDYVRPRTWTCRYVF
The experiment can be described thus: Inhibition of enzymatic esterification of cholesterol (ACAT) in rat adrenal supernatant containing the microsomal fraction. Type of experiment: biochemical. To be noted: final concentration of test compound 5.2 μg./ml., percent inhibition of the ACAT enzyme compared to control values. Here is the method:
The compounds of the present invention were tested for their ability to inhibit the enzymatic esterification of cholesterol according to the following procedure:
Rat adrenals were homogenized in 0.2M monobasic potassium phosphate buffer, pH 7.4, and centrifuged at 1,000 times gravity for 15 minutes at 5° C. The supernatant, containing the microsomal fraction, served as the source of the cholesterol-esterifying enzyme, fatty acyl CoA: cholesterol acyl transferase (ACAT). A mixture comprising 50 parts of adrenal supernatant, 10 parts of albumin (BSA) (50 mg./ml.), […], 3 parts of test compound, and 500 parts of buffer was pre-incubated at 37° C. for 10 minutes. After treatment with 20 parts of oleoyl CoA (^14 C-0.4 μCi), the mixture was incubated at 37° C. for 10 minutes. A control mixture, omitting the test compound, was prepared and treated in the same manner. The lipids from the incubation mixture were extracted into an organic solvent and separated by thin-layer chromatography. The cholesterol ester fraction was counted in a scintillation counter. This procedure is a modification of that described by Hashimoto, et al., Life Scie., 12 (Part II), 1-12 (1973).
The results of this test on representative compounds of this invention appear in Table I. The final concentration of the test compound was 5.2 μg./ml., and the effectiveness of the compound is expressed as percent inhibition of the ACAT enzyme compared to control values.
`Cc1ccc(C(CC(=O)Nc2ccc(C#N)cc2)c2ccc(C)cc2)cc1` [N--(p-Cyanophenyl)-3,3-bis(p-tolyl)propionamide] returned an inhibition at 5.2 µg/mL of 90%.
The figure for `COc1ccc(C(CC(=O)Nc2ccc(F)cc2)c2ccc(OC)cc2)cc1` [N--(p-Fluorophenyl)-3,3-bis(4-methoxyphenyl)propionamide] is 92%; for `COc1ccc(C=CC(=O)Nc2ccc(C(=O)O)cc2)cc1` [4-(p-Methoxycinnamamido)benzoic acid] it is 20%.
The figure for `CCOC(=O)c1ccc(NC(=O)C=C(c2ccccc2)c2ccc(Cl)c([N+](=O)[O-])c2)cc1` [4-(4-Chloro-3-nitro-β-phenylcinnamamido)benzoic acid, ethyl ester] is 94%; for `CCOC(=O)c1ccc(NC(=O)CCCCCc2ccc(Cl)cc2)cc1` [4-[6-(p-Chlorophenyl)hexanamido]benzoic acid, ethyl ester] it is 42%.
On to `CCOC(=O)c1ccc(NC(=O)C=C(c2ccc(F)cc2)c2ccc(F)cc2)cc1` [4-[3,3-Bis(p-fluorophenyl)acrylamido]benzoic acid, ethyl ester], for which testing at 5.2 µg/mL gave an inhibition of 74%.
Next, `O=C(C=C(c1ccc(Cl)cc1)c1ccc(Cl)cc1)Nc1cccc(C(=O)O)c1` [3 - [3,3-Bis(p-chlorophenyl)acrylamido]benzoic acid]: 98%; `CCOC(=O)c1ccc(NC(=O)C=C(c2ccccc2)c2ccc(C)cc2)cc1` [4-(p-Methyl-β-phenylcinnamamido)benzoic acid, ethyl ester]: 88%.
`COC(=O)c1cccc(NC(=O)C=C(c2ccc(Cl)cc2)c2ccc(Cl)cc2)c1` [3-[3,3-Bis(p-chlorophenyl)acrylamido]benzoic acid, methyl ester] yielded an inhibition at 5.2 µg/mL of 94%.
`O=C(CC(c1ccc(Cl)cc1)c1ccc(Cl)cc1)Nc1ccccc1` [N--Phenyl-3,3-bis(p-chlorophenyl)propionamide] yielded an inhibition at 5.2 µg/mL of 50%.
`Cc1ccc(C(CC(=O)Nc2ccccc2)c2ccc(C)cc2)cc1` [N--Phenyl-3,3-bis(p-tolyl)propionamide]: testing at 5.2 µg/mL gave an inhibition of 82%.
The figure for `O=C(C=C(c1ccc(Cl)cc1)c1ccc(Cl)cc1)Nc1ccccc1C(=O)O` [2-[3,3-Bis(p-chlorophenyl)acrylamido]benzoic acid] is 32%; for `COc1ccc(C(=CC(=O)Nc2ccc(C(=O)O)cc2)c2ccc(OC)cc2)cc1` [4-[3,3-Bis(p-methoxyphenyl)acrylamido]benzoic acid] it is 78%; for `Cc1ccc(C(CC(=O)Nc2ccc(C(F)(F)F)cc2)c2ccc(C)cc2)cc1` [N--(p-Trifluoromethylphenyl)-3,3-bis(p-tolyl)propionamide] it is 94%.
The figure for `CCOC(=O)COC(=O)c1ccc(NC(=O)C=C(c2ccc(Cl)cc2)c2ccc(Cl)cc2)cc1` [4-[p-Chloro-β-(p-chlorophenyl)cinnamamido]benzoic acid, ethyl glycolate ester] is 88%; for `CCOC(=O)c1ccc(NC(=O)C=C(c2ccc(OC)cc2)c2ccc(OC)cc2)cc1` [4-[3,3-Bis(p-methoxyphenyl)acrylamido]benzoic acid, ethyl ester] it is 97%.
Next, `CC(=CC(=O)Nc1ccc(C(=O)O)cc1)c1ccc(Cl)cc1` [4-(p-Chloro-β-methylcinnamamido)benzoic acid]: 71%; `CCOC(=O)c1ccc(NC(=O)C=Cc2ccc(OC)cc2)cc1` [4-(p-Methoxycinnamamido)benzoic acid, ethyl ester]: 53%; `COc1ccc(C(CC(=O)Nc2ccc(Br)cc2)c2ccc(OC)cc2)cc1` [N--(p-Bromophenyl)-3,3-bis(4-methoxyphenyl)propionamide]: 79%.
`CCOC(=O)c1ccc(NC(=O)C=C(C)c2ccc(Cl)c(Cl)c2)cc1` [4-(3,4-Dichlorophenyl-β-methylacrylamido)benzoic acid, ethyl ester] displayed an inhibition at 5.2 µg/mL of 74%.
Next, `COc1ccc(C(CC(=O)Nc2ccc(Cl)cc2)c2ccc(OC)cc2)cc1` [N--(p-Chlorophenyl)-3,3-bis(4-methoxyphenyl)propionamide]: 91%; `CC(=O)c1ccc(NC(=O)CC(c2ccc(Cl)cc2)c2ccc(Cl)cc2)cc1` [N--(4-Acetylphenyl)-3,3-bis(p-chlorophenyl)propionamide]: 95%.
Consider `Cc1ccc(C(=CC(=O)Nc2ccc(C(=O)O)cc2)c2ccc(C)cc2)cc1` [4-[3,3-Di-(p-tolyl)acrylamido]benzoic acid], for which the inhibition at 5.2 µg/mL was 89%.
The compound `Cc1ccc(C(=CC(=O)Nc2ccc(C(=O)O)cc2)c2ccccc2)cc1` [4-(p-Methyl-β-phenylcinnamamido)benzoic acid] gave an inhibition at 5.2 µg/mL of 80%.
The figure for `CCOC(=O)c1ccc(NC(=O)C(c2ccc(Cl)cc2)c2ccc(Cl)cc2)cc1` [4-[2,2-Bis(p-chlorophenyl)acetamido]benzoic acid, ethyl ester] is 86%.
The figure for `O=C(CC(c1ccc(Cl)cc1)c1ccc(Cl)cc1)Nc1ccc(F)cc1` [N--(4-Fluorophenyl)-3,3-bis(p-chlorophenyl)propionamide] is 67%.
The figure for `COC(=O)c1ccccc1NC(=O)C=C(c1ccc(Cl)cc1)c1ccc(Cl)cc1` [2-[3,3-Bis(p-chlorophenyl)acrylamido]benzoic acid, methyl ester] is 71%.
The compound `O=C(C=C(c1ccc(F)cc1)c1ccc(F)cc1)Nc1ccc(C(=O)O)cc1` [4-[3,3-Bis(p-fluorophenyl)acrylamido]benzoic acid] yielded an inhibition at 5.2 µg/mL of 79%.
Next, `O=C(C=C(c1ccc(Br)cc1)c1ccc(Br)cc1)Nc1ccc(C(=O)O)cc1` [4-[3,3-Bis(p-bromophenyl)acrylamido]benzoic acid]: 90%; `COc1ccc(C(CC(=O)Nc2ccccc2)c2ccc(OC)cc2)cc1` [N--Phenyl-3,3-bis(4-methoxyphenyl)propionamide]: 91%.
Regarding `CC(=O)c1ccc(NC(=O)C=C(c2ccc(Cl)cc2)c2ccc(Cl)cc2)cc1` [4'-Acetyl-3,3-bis(p-chlorophenyl)acrylanilide], the inhibition at 5.2 µg/mL is 86%.
Take `N#Cc1ccc(NC(=O)C=C(c2ccc(Cl)cc2)c2ccc(Cl)cc2)cc1` [3,3-Bis(p-chlorophenyl-4'-cyanoacrylanilide]: testing at 5.2 µg/mL gave an inhibition of 96%.
The figure for `COc1ccc(C(CC(=O)Nc2ccc(C(=O)O)cc2)c2ccc(OC)cc2)cc1` [4'-[3,3-Bis(4-methoxyphenyl)propionamido]benzoic acid] is 45%; for `CCOC(=O)c1ccc(NC(=O)CCc2ccc(C)cc2)cc1` [4-(p-Methylhydrocinnamamido)benzoic acid, ethyl ester] it is 25%.
On to `COc1ccc(C(CC(=O)Nc2ccc(C)cc2)c2ccc(OC)cc2)cc1` [N--(p-Tolyl)-3,3-bis(4-methoxyphenyl)propionamide], for which 5.2 µg/mL produced 97% inhibition.
Next, `O=C(O)c1ccc(NC(=O)C(c2ccc(Cl)cc2)c2ccc(Cl)cc2)cc1` [4-[2,2-Bis(p-chlorophenyl)acetamido]benzoic acid]: 71%; `COc1ccc(NC(=O)CC(c2ccc(OC)cc2)c2ccc(OC)cc2)cc1` [N--(p-Methoxyphenyl)-3,3-bis(4-methoxyphenyl)propionamide]: 58%.
The figure for `O=C(CCCCCc1ccc(Cl)cc1)Nc1ccc(C(=O)O)cc1` [4-(p-Chlorophenyl)hexanamidobenzoic acid, 4-[6-(p-Chlorophenyl)hexanamido]benzoic acid] is 18%; for `Cc1ccc(C(CC(=O)Nc2ccc(Cl)cc2)c2ccc(C)cc2)cc1` [N--(p-Chlorophenyl)-3,3-bis(p-tolyl)propionamide] it is 89%; for `CCOC(=O)c1ccc(NC(=O)C=C(c2ccccc2)c2ccccc2)cc1` [p-(3,3-Diphenylacrylamido)benzoic acid, ethyl ester] it is 40%.
Compound `CCOC(=O)c1ccc(NC(=O)C=Cc2ccc(Cl)cc2)cc1` [4-(p-Chlorocinnamamido)benzoic acid, ethyl ester] came in with an inhibition at 5.2 µg/mL of 51%.

For the origin of these results see patent US4536346A, “Aralkanamidophenyl compounds” (American Cyanamid Company, priority 1983, dated 1985).
